Measured values published in the supplement of paper PMC10307832.

Key:
Assay in all cases: relative viability (nuclei count vs DMSO), 5 days (fraction); higher = more cells survive
[1] = compound: Cn1cc(-c2cnn3c(N)c(Br)c([C@@H]4CCCNC4)nc23)cn1 + Cc1nc(NC(=O)N2CCC[C@H]2C(N)=O)sc1-c1ccnc(C(C)(C)C(F)(F)F)c1 [Alpelisib] (partner 2 µM)
Method in brief: (§1)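 For relative viability, nuclei counts in treated wells were divided by those in vehicle wells. Lung cancer cell lines had been pin-tool dosed in 1536-well plates the day after seeding and cultured for 5 days, then fixed and stained in one step (final 0.05% Triton X-100, 1% formaldehyde, 1 ug/ml Hoechst) and imaged at 4×. Doses were one drug alone or a fixed anchor-drug dose plus five library-drug doses (not always all listed) in √10 steps, and values are duplicate-plate medians.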

[2] = compound: Cn1cc(-c2cnn3c(N)c(Br)c([C@@H]4CCCNC4)nc23)cn1 + CC(=O)c1c(C)c2cnc(Nc3ccc(N4CCNCC4)cn3)nc2n(C2CCCC2)c1=O [Palbociclib] (partner 0.5 µM)
Method in brief: as §1

[3] = compound: Cn1cc(-c2cnn3c(N)c(Br)c([C@@H]4CCCNC4)nc23)cn1 + O=C(c1cc(Cc2n[nH]c(=O)c3ccccc23)ccc1F)N1CCN(C(=O)C2CC2)CC1 [Olaparib] (partner 8 µM)
Method in brief: as §1

[4] = compound: Cn1cc(-c2cnn3c(N)c(Br)c([C@@H]4CCCNC4)nc23)cn1 + Nc1nc2[nH]cc(CCc3ccc(C(=O)N[C@@H](CCC(=O)O)C(=O)O)cc3)c2c(=O)[nH]1 [Pemetrexed] (partner 0.2 µM)
Method in brief: as §1

Row | Cell Line | relative viability ([1]; first compound 0.05 µM) | relative viability ([1]; first compound 0.1581 µM) | relative viability ([1]; first compound 0.5 µM) | relative viability ([1]; first compound 1.581 µM) | relative viability ([1]; first compound 5 µM) | relative viability ([2]; first compound 0.05 µM) | relative viability ([2]; first compound 0.1581 µM) | relative viability ([2]; first compound 0.5 µM) | relative viability ([2]; first compound 1.581 µM) | relative viability ([2]; first compound 5 µM) | relative viability ([3]; first compound 0.05 µM) | relative viability ([3]; first compound 0.1581 µM) | relative viability ([3]; first compound 0.5 µM) | relative viability ([3]; first compound 1.581 µM) | relative viability ([3]; first compound 5 µM) | relative viability ([4]; first compound 0.05 µM) | relative viability ([4]; first compound 0.1581 µM) | relative viability ([4]; first compound 0.5 µM) | relative viability ([4]; first compound 1.581 µM) | relative viability ([4]; first compound 5 µM)
1 | NCI-H2087 | 1.29 | 1.17 | 1.21 | 0.98 | 0.938 | 0.222 | 0.292 | 0.235 | 0.241 | 0.177 | 0.766 | 0.735 | 0.623 | 0.624 | 0.676 | 0.671 | 0.637 | 0.615 | 0.582 | 0.647
2 | NCI-H2126 | 0.824 | 0.788 | 0.768 | 0.729 | 0.757 | 0.338 | 0.332 | 0.363 | 0.347 | 0.408 | 0.965 | 0.923 | 0.887 | 0.792 | 0.923 | 0.662 | 0.756 | 0.753 | 0.566 | 0.454
3 | NCI-H2170 | 0.865 | 0.764 | 0.654 | 0.705 | 0.88 | 0.402 | 0.407 | 0.366 | 0.345 | 0.397 | 0.605 | 0.588 | 0.649 | 0.523 | 0.555 | 0.268 | 0.258 | 0.26 | 0.256 | 0.223
